Publication PMC10763615, “Identification and engineering of potent cyclic peptides with selective or promiscuous binding through biochemical profiling and bioinformatic data analysis” (RSC Chemical Biology, 2023)
Where two headings read alike, the source gives them in different places.

Key:
[1] = target: T1, FGF-R4 ECD (Homo sapiens, UniProt P22455); test: multi-concentration BLI of purified peptides; assay type: binding; settings: purified NNK library peptides
T1 construct: DNA constructs for the extracellular domain (ECD) of human FGF-; HPC4 (C); made in house; host or cells: HEK 293-6E
T1 sequence (P22455 22-369 limits assumed): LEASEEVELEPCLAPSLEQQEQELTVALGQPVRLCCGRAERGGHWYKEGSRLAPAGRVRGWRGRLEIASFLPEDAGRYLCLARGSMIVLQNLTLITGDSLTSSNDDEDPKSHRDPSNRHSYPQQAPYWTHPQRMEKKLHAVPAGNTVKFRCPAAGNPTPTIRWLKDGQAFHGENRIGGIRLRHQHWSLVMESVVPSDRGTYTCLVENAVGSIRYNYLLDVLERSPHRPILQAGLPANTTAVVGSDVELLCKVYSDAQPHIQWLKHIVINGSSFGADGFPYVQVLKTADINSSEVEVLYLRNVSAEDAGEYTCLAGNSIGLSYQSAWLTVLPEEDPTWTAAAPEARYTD
In short: (§1)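 Biolayer interferometry with biotinylated FGF-R ECD on streptavidin biosensors in PBS pH 7.4, 0.05% Tween-20, 0.01% BSA. Multi-concentration: purified peptide dilution series fitted to a multi-point KD model.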

[2] = target: T2, FGF-R1C ECD (Homo sapiens, UniProt P11362); test: biochemical
T2 sequence (P11362 22-376 limits assumed): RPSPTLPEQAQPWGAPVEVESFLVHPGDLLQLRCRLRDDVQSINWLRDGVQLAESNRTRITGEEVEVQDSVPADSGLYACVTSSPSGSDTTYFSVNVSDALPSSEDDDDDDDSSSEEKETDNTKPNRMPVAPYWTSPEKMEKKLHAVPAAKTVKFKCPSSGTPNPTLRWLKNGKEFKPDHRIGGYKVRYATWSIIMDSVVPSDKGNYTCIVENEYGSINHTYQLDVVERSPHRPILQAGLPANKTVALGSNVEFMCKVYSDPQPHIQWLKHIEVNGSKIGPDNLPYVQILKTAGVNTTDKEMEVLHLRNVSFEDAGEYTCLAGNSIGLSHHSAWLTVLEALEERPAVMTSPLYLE
In short: as §1

[3] = target: T3, FGF-R3C ECD (Homo sapiens, UniProt P22607); test: biochemical
T3 sequence (P22607 23-375 limits assumed): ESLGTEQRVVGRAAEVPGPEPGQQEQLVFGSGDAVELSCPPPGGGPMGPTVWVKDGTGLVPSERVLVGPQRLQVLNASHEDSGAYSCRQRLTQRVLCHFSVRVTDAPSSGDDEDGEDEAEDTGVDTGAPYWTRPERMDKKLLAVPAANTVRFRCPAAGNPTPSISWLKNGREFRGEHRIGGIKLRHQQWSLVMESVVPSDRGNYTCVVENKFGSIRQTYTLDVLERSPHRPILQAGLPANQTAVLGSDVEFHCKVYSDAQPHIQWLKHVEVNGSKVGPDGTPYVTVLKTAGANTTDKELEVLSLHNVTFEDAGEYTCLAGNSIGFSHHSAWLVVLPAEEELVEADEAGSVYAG
In short: as §1

[4] = target: T4, FGFR4/KLB (Fc-fused human FGF-R4 with beta-klotho) (Homo sapiens, UniProt P22455); test: AlphaScreen FGF21 competitive binding assay
T4 sequence (P22455 22-369 limits assumed): T1 sequence (P22455 22-369 limits assumed)

[5] = target: T1, FGF-R4 ECD; test: single concentration BLI of crude peptides; assay type: binding; settings: crude NNK peptides, single concentration BLI (Table S3); read-out: KD (4)
In short: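 Biotinylated FGF-R ECD on streptavidin biosensors was dipped into ~1 μM crude peptide in PBS pH7.4 with 0.05% Tween-20 and 0.01% BSA for association, then into buffer for dissociation, and followed by BLI. Fitted KD values were adjusted for peptide concentration measured by UPLC-CAD.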

[6] = target: T5, FGFR3c/BKL (Fc-fused human FGF-R3alpha(IIIc) with beta-klotho) (Homo sapiens, UniProt P22607); test: AlphaScreen FGF21 competitive binding assay
T5 sequence (P22607 23-375 limits assumed): T3 sequence (P22607 23-375 limits assumed)
Description: Alphascreen binding assay
(§2) The competitive binding assay was carried out according to the methods detailed in Hansen. et al using
(§3) AlphaScreen.3 All reagents and samples were prepared in assay buffer: 40mM Hepes, 140mM NaCl, 1mM
(§4) CaCl2, 0,05% Tween20, pH=7.5, 0.1% BSA. In brief, recombinant human beta-klotho (R&D Systems) was
(§5) preincubated for 60 min with the ectodomain, either Fc-fused human FGF-R1alpha(IIIc), FGF-R3alpha(IIIc)
(§6) or FGF-R4 (R&D Systems), and the mixture was added to the test peptides in OptiPlate™ (PerkinElmer).
(§7) Biotinylated FGF21 and heparin were further added to each well. AlphaScreen bead mix (1:1 mix of Protein
(§8) A acceptor beads/ streptavidin-coated donor beads, PerkinElmer) were added to each well incubated
(§9) overnight at RT in the dark, and measured on a plate reader (Envision). Assays were carried out in triplicates
(§10) with concentrations ranging from 3, 10, 30, 100, 300 ,1000 and 3000 nM of peptide. No peptide control
(§11) (media only) was used as a negative control, and unlabeled FGF21 and FGF1 as positive control.
(§12) competing with biotinylated natural FGF21 ligand.

[7] = target: T2, FGF-R1C ECD; test: biochemical; assay type: binding; set-up: DNA constructs for the extracellular domain (ECD) of human FGF-; HPC4 (C); made in house; host or cells: HEK 293-6E
In short: as §1

[8] = target: T3, FGF-R3C ECD; test: biochemical; assay type: binding; set-up: DNA constructs for the extracellular domain (ECD) of human FGF-; HPC4 (C); made in house; host or cells: HEK 293-6E
In short: as §1

[9] = target: T6, FGFR1c/KLB (Fc-fused human FGF-R1alpha(IIIc) with beta-klotho) (Homo sapiens, UniProt P11362); test: AlphaScreen FGF21 competitive binding assay
T6 sequence (P11362 22-376 limits assumed): T2 sequence (P11362 22-376 limits assumed)
Description: Alphascreen binding assay
as §2, §3, §4, §5, §6, §7, §8, §9, §10, §11, §12

[10] = purified NNK library peptides, multi-concentration BLI

Row | SMILES | Kd [1] | Kd [2] | Kd [3] | IC50 [4] | Kd [5] | IC50 [6] | Kd [7] | Kd [8] | IC50 [9] | R3C KD (nM) [3, 10] | Kd ([2]; read-out: R1C KD, purified NNK library peptides, multi-concentration BLI) | Kd ([3]; read-out: R3C KD, purified NNK library peptides, multi-concentration BLI) | IC50 ([4]; read-out: R4 competitive IC50, purified peptides, Alphascreen vs biotinylated FGF21) | IC50 ([6]; read-out: R3C competitive IC50, purified peptides, Alphascreen vs biotinylated FGF21) | Kd ([7]; read-out: KD (1C)) | Kd ([8]; read-out: KD(3C)) | IC50 ([9]; read-out: R1C competitive IC50, purified peptides, Alphascreen vs biotinylated FGF21) | R3C competitive IC50 (nM) ([6]; purified peptides, Alphascreen vs biotinylated FGF21)
1 | CC[C@H](C)[C@@H]1NC(=O)[C@@H](NC(=O)[C@H](CCSC)NC(C)=O)CSSC[C@@H](C(=O)NCC(=O)N[C@@H](CO)C(=O)NCC(=O)N[C@@H](CO)C(=O)N[C@@H](CC(=O)O)C(=O)N[C@@H](Cc2ccc(O)cc2)C(=O)N[C@@H](CCCCN)C(=O)N[C@@H](CC(=O)O)C(=O)N[C@@H](CC(=O)O)C(=O)N[C@@H](CC(=O)O)C(=O)N[C@@H](CC(=O)O)C(=O)N[C@@H](CCCCN)C(N)=O)NC(=O)[C@H](Cc2ccccc2)NC(=O)[C@H]([C@@H](C)CC)NC(=O)[C@H](Cc2ccccc2)NC(=O)[C@@H]2CCCN2C(=O)[C@H](CC(C)C)NC(=O)[C@H](Cc2ccccc2)NC(=O)[C@H](CC(C)C)NC(=O)[C@H](CC(=O)O)NC(=O)[C@H](Cc2ccccc2)NC1=O [3C.1] | > 1000 nM | > 1000 nM | 95 nM | > 1000 nM | > 10000 nM | 204 nM | > 10000 nM | 64 nM | > 1000 nM |  |  |  |  |  |  |  |  | 
2 | CC[C@H](C)[C@@H]1NC(=O)[C@@H](NC(=O)[C@@H](N)CCSC)CSSC[C@@H](C(=O)NCC(=O)N[C@@H](CO)C(=O)NCC(=O)N[C@@H](CO)C(=O)N[C@@H](CC(=O)O)C(=O)N[C@@H](Cc2ccc(O)cc2)C(=O)N[C@@H](CCCCN)C(=O)N[C@@H](CC(=O)O)C(=O)N[C@@H](CC(=O)O)C(=O)N[C@@H](CC(=O)O)C(=O)N[C@@H](CC(=O)O)C(=O)N[C@@H](CCCCN)C(N)=O)NC(=O)[C@@H]2CCCN2C(=O)[C@H]([C@@H](C)CC)NC(=O)[C@H](Cc2ccccc2)NC(=O)[C@@H]2CCCN2C(=O)[C@H](CCSC)NC(=O)[C@H](Cc2c[nH]cn2)NC(=O)[C@H]([C@@H](C)CC)NC(=O)[C@H](CC(=O)O)NC(=O)[C@H](Cc2ccccc2)NC1=O [3C.2] | > 1000 nM | > 1000 nM | > 1000 nM | > 1000 nM | > 10000 nM | > 1000 nM | > 10000 nM | > 10000 nM | > 1000 nM | did not show any binding |  |  |  |  |  |  |  | 
3 | CC[C@H](C)[C@@H]1NC(=O)[C@H](Cc2ccccc2)NC(=O)[C@@H]2CCCN2C(=O)[C@H](C(C)C)NC(=O)[C@H](Cc2ccccc2)NC(=O)[C@H](CO)NC(=O)[C@H](CC(=O)O)NC(=O)[C@H](Cc2ccccc2)NC(=O)[C@H](CC(C)C)NC(=O)[C@@H](NC(=O)[C@@H](N)CCSC)CSSC[C@@H](C(=O)NCC(=O)N[C@@H](CO)C(=O)NCC(=O)N[C@@H](CO)C(=O)N[C@@H](CC(=O)O)C(=O)N[C@@H](Cc2ccc(O)cc2)C(=O)N[C@@H](CCCCN)C(=O)N[C@@H](CC(=O)O)C(=O)N[C@@H](CC(=O)O)C(=O)N[C@@H](CC(=O)O)C(=O)N[C@@H](CC(=O)O)C(=O)N[C@@H](CCCCN)C(N)=O)NC(=O)[C@H](Cc2ccccc2)NC1=O [3C.3] | > 1000 nM |  |  |  | > 10000 nM |  |  |  |  |  | > 1000 nM | 21 nM | > 1000 nM | 95 nM | > 10000 nM | 29 nM | > 1000 nM | 
4 | CSCC[C@H](NC(C)=O)C(=O)N[C@H]1CSSC[C@@H](C(=O)NCC(=O)N[C@@H](CO)C(=O)NCC(=O)N[C@@H](CO)C(=O)N[C@@H](CC(=O)O)C(=O)N[C@@H](Cc2ccc(O)cc2)C(=O)N[C@@H](CCCCN)C(=O)N[C@@H](CC(=O)O)C(=O)N[C@@H](CC(=O)O)C(=O)N[C@@H](CC(=O)O)C(=O)N[C@@H](CC(=O)O)C(=O)N[C@@H](CCCCN)C(N)=O)NC(=O)[C@H](CO)NC(=O)[C@H](Cc2c[nH]cn2)NC(=O)[C@H](Cc2c[nH]c3ccccc23)NC(=O)[C@H](Cc2c[nH]cn2)NC(=O)[C@H](CCCNC(=N)N)NC(=O)[C@H]([C@@H](C)O)NC(=O)[C@H](Cc2ccc(O)cc2)NC(=O)[C@H](CC(C)C)NC(=O)[C@H](CC(N)=O)NC(=O)[C@H](Cc2c[nH]c3ccccc23)NC(=O)[C@H](CCC(N)=O)NC(=O)[C@H](CCC(N)=O)NC1=O [3C.4] | > 1000 nM | > 1000 nM | > 1000 nM | > 1000 nM | > 10000 nM | 71 nM | > 10000 nM | > 10000 nM | > 1000 nM | could not detect any binding |  |  |  |  |  |  |  | efficiently competes with FGF21
5 | CC[C@H](C)[C@@H]1NC(=O)[C@H](C(C)C)NC(=O)[C@H](Cc2c[nH]cn2)NC(=O)[C@@H](NC(=O)[C@H](CCSC)NC(C)=O)CSSC[C@@H](C(=O)NCC(=O)N[C@@H](CO)C(=O)NCC(=O)N[C@@H](CO)C(=O)N[C@@H](CC(=O)O)C(=O)N[C@@H](Cc2ccc(O)cc2)C(=O)N[C@@H](CCCCN)C(=O)N[C@@H](CC(=O)O)C(=O)N[C@@H](CC(=O)O)C(=O)N[C@@H](CC(=O)O)C(=O)N[C@@H](CC(=O)O)C(=O)N[C@@H](CCCCN)C(N)=O)NC(=O)[C@H](Cc2ccc(O)cc2)NC(=O)[C@H](CCCNC(=N)N)NC(=O)[C@H](Cc2c[nH]c3ccccc23)NC(=O)[C@H](CO)NC(=O)[C@H](CCCNC(=N)N)NC(=O)[C@H](Cc2c[nH]c3ccccc23)NC(=O)[C@H](CC(C)C)NC1=O [4.2] | 51 nM | > 1000 nM | > 1000 nM | 682 nM | 93 nM | > 1000 nM | > 10000 nM | > 10000 nM | > 1000 nM |  |  |  |  |  |  |  |  | 
6 | CSCC[C@H](NC(C)=O)C(=O)N[C@H]1CSSC[C@@H](C(=O)NCC(=O)N[C@@H](CO)C(=O)NCC(=O)N[C@@H](CO)C(=O)N[C@@H](CC(=O)O)C(=O)N[C@@H](Cc2ccc(O)cc2)C(=O)N[C@@H](CCCCN)C(=O)N[C@@H](CC(=O)O)C(=O)N[C@@H](CC(=O)O)C(=O)N[C@@H](CC(=O)O)C(=O)N[C@@H](CC(=O)O)C(=O)N[C@@H](CCCCN)C(N)=O)NC(=O)[C@H](CO)NC(=O)[C@H](CCCNC(=N)N)NC(=O)[C@H](Cc2ccccc2)NC(=O)[C@H](C)NC(=O)[C@H](CC(C)C)NC(=O)[C@H](Cc2ccc(O)cc2)NC(=O)[C@H](Cc2ccc(O)cc2)NC(=O)[C@H](C)NC(=O)[C@H](CC(C)C)NC(=O)[C@H](Cc2c[nH]cn2)NC1=O [4.3] | 86 nM | > 1000 nM | > 1000 nM | 508 nM | 58 nM | > 1000 nM | > 10000 nM | > 10000 nM | > 1000 nM |  |  |  |  |  |  |  |  | 
